# Measured values taken from US8916583B2, “Therapeutic compositions for intranasal administration of zolpidem” (Renascence Therapeutics Limited, priority 2012, dated 2014).
# Structures can show the parent of a compound that is named as a salt.
# Legend:
# [1] = Pharmacokinetic study in beagle dogs; conditions: for CL/F / Rel F(5 mg oral) / Tmax: beagle dogs; for Rel F(5 mg oral): relative to 5 mg oral; for AUC(0-inf) / AUC(0-t) / Cmax / MRT / half-life / Tmax: both, beagle, dog, plasma
# Protocol: Eight beagle dogs (4 male and 4 female) participated in the study. […] Water was given ad libitum throughout the study. Food was provided 4 hours post-dose. Blood samples were collected at pre-dose (0 min) and at 3, 6, 9, 12, 15, 20, 30, 45 minutes; and at 1, 1.5, 2, 3, 4, 6, 8, 24 hours post-dose. After plasma-separation process, the samples were analyzed by a validated LC-MS/MS method.
# [2] = cited from earlier work
# plasma proteins = conditions: cited from earlier work
# [3] = cited from earlier work; remark: listed apart in the source
# toad palate = test: Nasal ciliotoxicity evaluation, in-situ toad palate model; assay type: in vivo; design: key to Ciliotoxicity: no effect: cilia on the mucosa was intact, dense and beating actively; mild: less than 25% ciliostasis; moderate: cilia was disarranged or only partial cilia left; all cilia lost and apical cell border was severe deformed; conditions: 0.2 ml, 4 h, light microscope 400×
# Protocol: The nasal ciliotoxicity of zolpidem tartrate, solubilizing agents and several nasal solution formulations were investigated using an in-situ toad palate model. Briefly, 0.2 ml test formulations were administrated on a toad palate. […] The mucocilia was examined with a light microscope at enlargements of 400× (n=3˜6). Saline and a typical nasal mucociliary toxic agent—sodium deoxycholatee—were used as a negative and positive control, respectively. Study protocol was illustrated in Table 11, and the degree of ciliotoxicity caused by the test formulations was coarse classified as follows: “no effect”: cilia on the mucosa was intact, dense and beating actively; “mild”: less than 25% ciliostasis; “moderate”: cilia was disarranged or only partial cilia left; “severe”: all cilia lost and apical cell border was severe deformed.
# [4] = intranasal administration (ZLP-B01), 1.25 mg/dog
# [5] = intranasal administration (ZLP-B01), 2.5 mg/dog
# [6] = intranasal administration (ZLP-B01), 5 mg/dog
compound,measurement,setting,value
"Cc1ccc(-c2nc3ccc(C)cn3c2CC(=O)N(C)C)cc1 [Zolpidem, N,N,6-trimethyl-2-(4-methylphenyl)-imidazo[1,2-a]pyridine-3-acetamide]",CL/F,[1]; [4],110 ± 41 L/h
same,Rel F(5 mg oral),[1]; [4],167%
same,CL/F,[1]; [5],144 ± 76 L/h
same,Rel F(5 mg oral),[1]; [5],145%
same,CL/F,[1]; [6],181 ± 137 L/h
same,Rel F(5 mg oral),[1]; [6],124%
same,CL/F,"[1]; oral administration (marketed tablet, Stilnox), 5 mg/dog",204 ± 96 L/h
same,CL/F,"[1]; oral administration (marketed tablet, Stilnox), 10 mg/dog",110 ± 69 L/h
same,AUC(0-inf),"[1]; inhaled or intranasal, 1.25 mg",12.9 ± 5.2 ng·h/mL
same,AUC(0-t),"[1]; inhaled or intranasal, 1.25 mg",12.8 ± 5.24 ng·h/mL
same,Cmax,"[1]; inhaled or intranasal, 1.25 mg",13 ± 6.36 ng/mL
same,MRT,"[1]; inhaled or intranasal, 1.25 mg",67.8 ± 10.8 min
same,half-life,"[1]; inhaled or intranasal, 1.25 mg",57 ± 10.8 min
same,Tmax,"[1]; inhaled or intranasal, 1.25 mg, intranasal administration (ZLP-B01), 1.25 mg/dog",8.4 ± 1.8 min
same,AUC(0-inf),"[1]; inhaled or intranasal, 2.5 mg",22.4 ± 12.1 ng·h/mL
same,AUC(0-t),"[1]; inhaled or intranasal, 2.5 mg",22.2 ± 12.2 ng·h/mL
same,Cmax,"[1]; inhaled or intranasal, 2.5 mg",22 ± 13.1 ng/mL
same,MRT,"[1]; inhaled or intranasal, 2.5 mg",74.4 ± 49.8 min
same,half-life,"[1]; inhaled or intranasal, 2.5 mg",43.8 ± 13.8 min
same,Tmax,"[1]; inhaled or intranasal, 2.5 mg, intranasal administration (ZLP-B01), 2.5 mg/dog",8.4 ± 4.2 min
same,AUC(0-inf),"[1]; inhaled or intranasal, 5 mg",38 ± 18.5 ng·h/mL
same,AUC(0-t),"[1]; inhaled or intranasal, 5 mg",38 ng·h/mL
same,Cmax,"[1]; inhaled or intranasal, 5 mg",33.3 ng/mL
same,MRT,"[1]; inhaled or intranasal, 5 mg",90 ± 19.8 min
same,half-life,"[1]; inhaled or intranasal, 5 mg",68.4 ± 11.4 min
same,Tmax,"[1]; inhaled or intranasal, 5 mg, intranasal administration (ZLP-B01), 5 mg/dog",12.6 min
same,Tmax,"[1]; inhaled or intranasal, 5 mg, range over dogs, intranasal administration, 5 mg/dog",3 to 15 min
same,AUC(0-inf),"[1]; po, 5 mg",30.7 ± 16.9 ng·h/mL
same,AUC(0-t),"[1]; po, 5 mg",30.6 ng·h/mL
same,Cmax,"[1]; po, 5 mg",25.5 ng/mL
same,MRT,"[1]; po, 5 mg",100 ± 27.6 min
same,half-life,"[1]; po, 5 mg",57.6 ± 10.2 min
same,Tmax,"[1]; po, 5 mg, oral administration (marketed tablet, Stilnox), 5 mg/dog",41.4 min
same,Tmax,"[1]; po, 5 mg, range over dogs, oral administration, 5 mg/dog",19.8 to 120 min
same,AUC(0-inf),"[1]; po, 10 mg",121 ± 64.6 ng·h/mL
same,AUC(0-t),"[1]; po, 10 mg",120 ± 64.4 ng·h/mL
same,Cmax,"[1]; po, 10 mg",128 ± 59.7 ng/mL
same,MRT,"[1]; po, 10 mg",79.8 ± 18 min
same,half-life,"[1]; po, 10 mg",59.4 ± 12.6 min
same,Tmax,"[1]; po, 10 mg, oral administration (marketed tablet, Stilnox), 10 mg/dog",25.8 ± 11.4 min
same,time to peak plasma concentrations,[2]; after oral doses,≤ 3 h
same,elimination half-life,[2]; in vivo,about 2.5 hours
same,absolute bioavailability,"[2]; oral, first-pass metabolism",about 70%
same,bound to plasma proteins,plasma proteins,about 92%
Cc1ccc(-c2nc3ccc(C)cn3c2CC(=O)N(C)C)cc1 [Zolpidem tartrate],aqueous solubility,[3]; at 20° C.,about 23 mg/ml
same,solubility in water,[3]; water,slightly soluble
sodium deoxycholate [1% sodium deoxycholate],Ciliotoxicity,toad palate,severe
same,Optical microscopic observation,toad palate,no cilia on the mucosa
